Laboratory results reported in US20260193227A1, “THERAPEUTIC COMPOUNDS AND METHODS” (UNIVERSITY OF IOWA RESEARCH FOUNDATION, priority 2022, published 2026).
“Also recorded” adds a separate entry of the source.

Tests used:
RPA-ssDNA interaction = molecular target: T1, RPA-ssDNA interaction (Homo sapiens, UniProt P27694); assay: FRET-based inhibition of the RPA-ssDNA interaction; type: binding; conditions: FRET titration
T1 construct: made in house
Experimental: (§1) Proteins: The 6×His-tagged human RAD52 proteins (wild type and mutants) and untagged human RPA were expressed and purified as previously described in (Hengel S R, eLife. 2016; 5; Grimme J M, et al., Nucleic Acids Res. 2010; 38(9):2917-30; and Henricksen L A, et al., The Journal of biological chemistry. 1994; 269(15):11121-32). RPA and RAD52 protein concentrations were determined by measuring absorbance at 280 nm using extinction coefficients of 88,830 M^−1 cm^−1 and 40,470 M^−1 cm^−1, respectively.
(§2) FRET-based DNA binding and inhibition assays: FRET-based that monitor the RAD52-ssDNA, RPA-ssDNA and RAD52-RPA-ssDNA binding were carried out as previously described (Hengel S R, eLife. 2016; 5; Grimme J M, et al., Nucleic Acids Res. 2010; 38(9):2917-30; and Grimme J M, Spies M. FRET-based assays to monitor DNA binding and annealing by Rad52 recombination mediator protein. Methods in molecular biology (Clifton, NJ). 2011; 745:463-83) using Cary Eclipse Spectrofluorimeter (Agilent) at 25° C., in 5 mm quartz cuvettes, and in buffer containing 30 mM Tris-Acetate (pH 7.5) and 1 mM DTT. Cy3 dye was excited at 530 nm and its emission was monitored at 565 nm. Emission of Cy5 acceptor fluorophore excited through the energy transfer from Cy3 donor is monitored at 660 nm simultaneously with emission of Cy3 dye. Both the excitation and the emission slits were set to 10 nm. All experiments were carried out using 1 nM (molecules) Cy3-dT30-Cy5 ssDNA. The optimal concentrations of the RAD52 (6 nM) and RPA (1 nM) proteins were selected by titrating the respective protein into 1 nM Cy3-dT30-Cy5 solution, and chosen based on the largest separation of the FRET values corresponding to the protein bound and free DNA.
(§3) The inhibition of the RAD52-ssDNA, RPA-ssDNA and RAD52-RPA-ssDNA complexes was evaluated by titrating each compound to the respective complex, measuring Cy3 and Cy5 fluorescence, and calculating FRET as previously described (Hengel, S. R., et al., eLife, 5).
(§4) Spectral properties of many compounds overlapped with the Cy3 and Cy5 fluorescence. To correct the calculated FRET values for the compound signal, the fluorogenic compounds were titrated into buffer and into solution of 1 nM Cy3-dT30-Cy5. For all tested compounds, the change in the signal in the Cy3 and Cy5 channels with and without Cy3/Cy5-labeled DNA present was the same. […] To account for the dye fluorescence, for each compound concentration, the apparent change in FRET of the ssDNA in the presence the compound was subtracted from the respective FRET signal of the RAD52-ssDNA, RPA-ssDNA or RAD52-ssDNA-RPA complex at the same inhibitor concentration. The IC50 values were calculated by fitting the corrected FRET data to the four-parameter dose response model using GraphPad Prism. All data are shown as average for at least three independent experiments ±standard deviation. The IC50 values are presented with their respective fitting error.

RAD52-ssDNA interaction = molecular target: T2, RAD52-ssDNA interaction (Homo sapiens, UniProt P43351); assay: FRET-based inhibition of the RAD52-ssDNA interaction; type: binding; conditions: for effect on the RAD52-ssDNA complex / capacity to inhibit RAD52: FRET titration; for selectivity towards RAD52 over RPA: in vitro FRET-based assays
T2 construct: 6xHis; made in house
T2 sequence (P43351 1-418): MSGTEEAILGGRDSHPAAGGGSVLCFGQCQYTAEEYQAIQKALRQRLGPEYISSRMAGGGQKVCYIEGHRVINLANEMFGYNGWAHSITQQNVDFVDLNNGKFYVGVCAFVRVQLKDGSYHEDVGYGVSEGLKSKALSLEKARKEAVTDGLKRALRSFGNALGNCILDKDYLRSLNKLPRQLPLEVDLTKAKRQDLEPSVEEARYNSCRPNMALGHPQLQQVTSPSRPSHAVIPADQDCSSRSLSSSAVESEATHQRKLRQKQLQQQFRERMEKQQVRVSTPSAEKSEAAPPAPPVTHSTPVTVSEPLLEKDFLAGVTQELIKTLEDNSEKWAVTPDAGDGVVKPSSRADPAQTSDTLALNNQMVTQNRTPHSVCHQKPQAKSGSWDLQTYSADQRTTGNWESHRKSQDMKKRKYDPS
Experimental: as §1, §2, §3, §4

[1] = Solubility in cell culture medium; type: physicochemical; conditions: plasma or biological fluid

T1 sequence (P27694 whole entry): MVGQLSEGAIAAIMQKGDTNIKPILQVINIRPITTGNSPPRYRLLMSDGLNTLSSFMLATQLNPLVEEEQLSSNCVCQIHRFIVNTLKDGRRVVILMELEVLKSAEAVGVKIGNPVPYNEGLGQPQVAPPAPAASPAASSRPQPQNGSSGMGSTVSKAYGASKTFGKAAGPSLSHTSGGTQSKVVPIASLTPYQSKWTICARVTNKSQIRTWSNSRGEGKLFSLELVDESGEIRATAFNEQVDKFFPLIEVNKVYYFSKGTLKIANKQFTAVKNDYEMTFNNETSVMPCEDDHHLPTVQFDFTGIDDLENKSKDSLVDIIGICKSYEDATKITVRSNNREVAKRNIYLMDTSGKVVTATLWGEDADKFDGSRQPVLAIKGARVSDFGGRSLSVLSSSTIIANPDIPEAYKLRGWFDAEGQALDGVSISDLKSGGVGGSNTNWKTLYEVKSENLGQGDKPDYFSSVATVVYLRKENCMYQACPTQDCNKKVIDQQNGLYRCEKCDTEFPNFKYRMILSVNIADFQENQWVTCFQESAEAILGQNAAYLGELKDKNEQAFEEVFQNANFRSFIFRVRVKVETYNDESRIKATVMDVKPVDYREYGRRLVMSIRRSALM
T1 sequence (P15927 whole entry partner): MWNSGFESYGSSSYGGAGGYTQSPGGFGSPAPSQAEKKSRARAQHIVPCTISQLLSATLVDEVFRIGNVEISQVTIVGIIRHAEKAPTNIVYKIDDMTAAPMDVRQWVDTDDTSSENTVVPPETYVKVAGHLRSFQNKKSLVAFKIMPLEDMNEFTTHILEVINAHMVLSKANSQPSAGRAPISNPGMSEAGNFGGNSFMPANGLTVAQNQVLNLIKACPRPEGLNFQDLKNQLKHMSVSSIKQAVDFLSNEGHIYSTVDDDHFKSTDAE
T1 sequence (P35244 whole entry partner): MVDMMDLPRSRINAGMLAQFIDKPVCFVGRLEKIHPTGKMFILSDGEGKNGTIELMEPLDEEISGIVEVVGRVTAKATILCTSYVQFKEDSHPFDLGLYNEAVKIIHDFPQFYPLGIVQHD

SMILES	effect on the RPA-ssDNA complex (RPA-ssDNA interaction)	effect on the RAD52-ssDNA complex / capacity to inhibit RAD52 (RAD52-ssDNA interaction)	selectivity towards RAD52 over RPA (RAD52-ssDNA interaction; listed as Z99)	solubility [1]	effect on the RPA-ssDNA complex (RPA-ssDNA interaction; listed as Z56)	selectivity towards RAD52 over RPA (RAD52-ssDNA interaction; listed as Z56)
O=C(Cn1cccc([N+](=O)[O-])c1=O)c1c[nH]c2ccccc12 [Example 1]	yields FRET values corresponding to the free ssDNA	FRET decrease	more promiscuous also inhibiting RPA; also recorded: more promiscuous, inhibited RPA in vitro	> 100 µM	–	–
COc1ccccc1NS(=O)(=O)c1cc(C(=O)O)ccc1C [Example 8]	–	FRET decrease	–	–	does not change the FRET values of the RPA-ssDNA complex; also recorded: no effect on the RPA-ssDNA complex	specific to RAD52 over RPA in vitro; also recorded: shows selectivity towards RAD52 over RPA
